Results as given in US11390616B2 (BRISTOL-MYERS SQUIBB COMPANY, priority 2015, dated 2022).

What follows are compounds tested against T1, human APJ receptor (Homo sapiens, UniProt P35414) (assay: Intracellular cAMP accumulation assay (APJ hcAMP, HTRF)). Details: HEK293 cells stably expressing human APJ receptor; inhibition of forskolin-mediated cAMP production; read-out: APJ cAMP Potency range.
T1 construct: expressed in transfected cells; host or cells: HEK293
T1 sequence (P35414 1-380): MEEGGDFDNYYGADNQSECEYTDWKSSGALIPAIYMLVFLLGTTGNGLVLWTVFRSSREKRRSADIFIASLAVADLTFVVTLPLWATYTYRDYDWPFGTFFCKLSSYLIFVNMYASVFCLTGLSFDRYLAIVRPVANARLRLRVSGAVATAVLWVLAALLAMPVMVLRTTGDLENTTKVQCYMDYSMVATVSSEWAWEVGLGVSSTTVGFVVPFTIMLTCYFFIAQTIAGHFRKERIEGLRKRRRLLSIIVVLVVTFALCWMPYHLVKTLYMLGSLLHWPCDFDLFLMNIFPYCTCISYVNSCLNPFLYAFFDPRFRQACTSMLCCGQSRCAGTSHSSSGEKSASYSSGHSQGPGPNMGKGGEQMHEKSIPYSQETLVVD
Assay type: cell-based
Protocol: Intracellular cAMP Accumulation Assay
HEK293 cells stably expressing human APJ receptor were used to assess the activity of compounds. Cultured cells were detached and resuspended in the cAMP Homogeneous Time-Resolved Fluorescence (HTRF) assay buffer (Cisbio cat; #62AM4PEJ). The assay was performed in 384-well assay plates (Perkin-Elmer; cat #6008289) according to assay protocol provided by the manufacturer. Serial dilutions of a compound together with assay buffer containing […] IBMX and 2 μM forskolin were added to each well containing 5,000 cells and incubated for 30 minutes at room temperature. Subsequently, cAMP D2 reagent was added in the lysis buffer followed by the EuK antibody (Cisbio; cat #62AM4PEJ) and incubated for 60 min. The fluorescence emission ratio was measured using fluorometer. The intracellular cAMP concentrations (compound-stimulated inhibition of forskolin-mediated cAMP production) were calculated by extrapolation from a standard curve using known cAMP concentrations. The EC50 values were obtained by fitting the data to a sigmoidal concentration-response curve with variable slope. The maximal achievable inhibition of forskolin-induced cAMP levels (Ymax) for each compound was expressed as relative percentage of inhibition attained using pyroglutamated apelin-13 ((Pyr1)apelin-13) peptide, which was set to 100%.
The examples disclosed below were tested in the APJ in vitro assays described above and were found having human APJ cyclic AMP (hcAMP) activity. The EC50 value of each compound is presented at the end of the example description.
The biological activity of the exemplified compounds of this invention determined by the assay described above is shown at the end of each example.

Compound | EC50 [nM]
COc1cccc(OC)c1-n1c(CCC2CC2)nc(O)c(Cc2ccc(-n3cc(C)ccc3=O)cc2)c1=O [Example 55, 2-(2-cyclopropylethyl)-3-(2,6-dimethoxyphenyl)-6-hydroxy-5-{[4-(5-methyl-2-oxo-1,2-dihydropyridin-1-yl)phenyl]methyl}-3,4-dihydropyrimidin-4-one] | 0.01 to 10
COc1cccc(OC)c1-n1c(CCC2CC2)nc(O)c(Cc2ccc(-n3cc(F)ccc3=O)cc2)c1=O [Example 56, 2-(2-cyclopropylethyl)-3-(2,6-dimethoxyphenyl)-5-{[4-(5-fluoro-2-oxo-1,2-dihydropyridin-1-yl)phenyl]methyl}-6-hydroxy-3,4-dihydropyrimidin-4-one] | 0.01 to 10
COc1cccc(OC)c1-n1c(CCC2CC2)nc(O)c(Cc2ccc(-n3cc(Cl)ccc3=O)cc2)c1=O [Example 57, 5-{[4-(5-chloro-2-oxo-1,2-dihydropyridin-1-yl)phenyl]methyl}-2-(2-cyclopropylethyl)-3-(2,6-dimethoxyphenyl)-6-hydroxy-3,4-dihydropyrimidin-4-one] | 0.01 to 10
COc1cccc(OC)c1-n1c(COC(C)C)nc(O)c(Cc2ccc(-n3cc(C)ccc3=O)cc2)c1=O [Example 58, 3-(2,6-dimethoxyphenyl)-6-hydroxy-5-{[4-(5-methyl-2-oxo-1,2-dihydropyridin-1-yl)phenyl]methyl}-2-[(propan-2-yloxy)methyl]-3,4-dihydropyrimidin-4-one] | 0.01 to 10
COc1cccc(OC)c1-n1c(COC(C)C)nc(O)c(Cc2ccc(-n3cc(F)ccc3=O)cc2)c1=O [Example 59, 3-(2,6-dimethoxyphenyl)-5-{[4-(5-fluoro-2-oxo-1,2-dihydropyridin-1-yl)phenyl]methyl}-6-hydroxy-2-[(propan-2-yloxy)methyl]-3,4-dihydropyrimidin-4-one] | 0.01 to 10
COc1cccc(OC)c1-n1c(COC(C)C)nc(O)c(Cc2ccc(-n3cc(Cl)ccc3=O)cc2)c1=O [Example 60, 5-{[4-(5-chloro-2-oxo-1,2-dihydropyridin-1-yl)phenyl]methyl}-3-(2,6-dimethoxyphenyl)-6-hydroxy-2-[(propan-2-yloxy)methyl]-3,4-dihydropyrimidin-4-one] | 0.01 to 10
CCn1ccc(-c2nc(=O)c(Cc3ccc(-c4ccncc4C)cc3)c(O)n2-c2c(OC)cccc2OC)n1 [Example 62, 1-(2,6-dimethoxyphenyl)-2-(1-ethyl-1H-pyrazol-3-yl)-6-hydroxy-5-{[4-(3-methylpyridin-4-yl)phenyl]methyl}-1,4-dihydropyrimidin-4-one] | 0.01 to 10
CCn1ccc(-c2nc(=O)c(Cc3ccc(-c4ccnc(F)c4C)cc3)c(O)n2-c2c(OC)cccc2OC)n1 [Example 63, 1-(2,6-dimethoxyphenyl)-2-(1-ethyl-1H-pyrazol-3-yl)-5-{[4-(2-fluoro-3-methylpyridin-4-yl)phenyl]methyl}-6-hydroxy-1,4-dihydropyrimidin-4-one] | 0.01 to 10
CCCCc1nc(=O)c(Cc2ccc(-c3ccc(F)nc3C)cc2)c(O)n1-c1c(CC)cccc1CC [Example 64, 2-butyl-1-(2,6-diethylphenyl)-5-{[4-(6-fluoro-2-methylpyridin-3-yl)phenyl]methyl}-6-hydroxy-1,4-dihydropyrimidin-4-one] | 0.01 to 10
CCCCc1nc(=O)c(Cc2ccc(-c3ccc(F)nc3)cc2)c(O)n1-c1c(CC)cccc1CC [Example 65, 2-butyl-1-(2,6-diethylphenyl)-5-{[4-(6-fluoropyridin-3-yl)phenyl]methyl}-6-hydroxy-1,4-dihydropyrimidin-4-one] | 0.01 to 10
CCCCc1nc(=O)c(Cc2ccc(-c3ccnc(F)c3C)cc2)c(O)n1-c1c(CC)cccc1CC [Example 66, 2-butyl-1-(2,6-diethylphenyl)-5-{[4-(2-fluoro-3-methylpyridin-4-yl)phenyl]methyl}-6-hydroxy-1,4-dihydropyrimidin-4-one] | 0.01 to 10
CCCCc1nc(=O)c(Cc2ccc(C3CC3)cc2)c(O)n1-c1c(CC)cccc1CC [Example 67, 2-butyl-5-[(4-cyclopropylphenyl)methyl]-1-(2,6-diethylphenyl)-6-hydroxy-1,4-dihydropyrimidin-4-one] | 0.01 to 10
CCCCc1nc(=O)c(Cc2ccc(-c3ccccc3)cc2)c(O)n1-c1c(CC)cccc1CC [Example 68, 5-({[1,1′-biphenyl]-4-yl}methyl)-2-butyl-1-(2,6-diethylphenyl)-6-hydroxy-1,4-dihydropyrimidin-4-one] | 10 to 100
CCc1cccc(CC)c1-n1c(-c2ccn(C)n2)nc(=O)c(Cc2ccc(-c3ccc(F)nc3C)c(F)c2)c1O [Example 69, 1-(2,6-diethylphenyl)-5-{[3-fluoro-4-(6-fluoro-2-methylpyridin-3-yl)phenyl]methyl}-6-hydroxy-2-(1-methyl-1H-pyrazol-3-yl)-1,4-dihydropyrimidin-4-one] | 0.01 to 10

More lines, now with the values ahead:

EC50 [nM] | Compound
0.01 to 10 | CCc1cccc(CC)c1-n1c(-c2ccn(C)n2)nc(=O)c(Cc2ccc(-c3ccncc3C)c(F)c2)c1O [Example 70, 1-(2,6-diethylphenyl)-5-{[3-fluoro-4-(3-methylpyridin-4-yl)phenyl]methyl}-6-hydroxy-2-(1-methyl-1H-pyrazol-3-yl)-1,4-dihydropyrimidin-4-one]
0.01 to 10 | CCc1cccc(CC)c1-n1c(-c2ccn(C)n2)nc(=O)c(Cc2ccc(-c3ccnc(F)c3C)c(F)c2)c1O [Example 71, 1-(2,6-diethylphenyl)-5-{[3-fluoro-4-(2-fluoro-3-methylpyridin-4-yl)phenyl]methyl}-6-hydroxy-2-(1-methyl-1H-pyrazol-3-yl)-1,4-dihydropyrimidin-4-one]
0.01 to 10 | CCc1cccc(CC)c1-n1c(-c2csc(C)n2)nc(=O)c(Cc2ccc(-c3ccc(F)nc3C)c(F)c2)c1O [Example 72, 1-(2,6-diethylphenyl)-5-{[3-fluoro-4-(6-fluoro-2-methylpyridin-3-yl)phenyl]methyl}-6-hydroxy-2-(2-methyl-1,3-thiazol-4-yl)-1,4-dihydropyrimidin-4-one]
0.01 to 10 | CCc1cccc(CC)c1-n1c(-c2nc(C)cs2)nc(=O)c(Cc2ccc(-c3ccnc(F)c3C)c(F)c2)c1O [Example 73, 1-(2,6-diethylphenyl)-5-{[3-fluoro-4-(2-fluoro-3-methylpyridin-4-yl)phenyl]methyl}-6-hydroxy-2-(4-methyl-1,3-thiazol-2-yl)-1,4-dihydropyrimidin-4-one]
0.01 to 10 | CCc1cccc(CC)c1-n1c(-c2csc(C)n2)nc(=O)c(Cc2ccc(-c3ccncc3C)c(F)c2)c1O [Example 74, 1-(2,6-diethylphenyl)-5-{[3-fluoro-4-(3-methylpyridin-4-yl)phenyl]methyl}-6-hydroxy-2-(2-methyl-1,3-thiazol-4-yl)-1,4-dihydropyrimidin-4-one]
0.01 to 10 | CCc1cccc(CC)c1-n1c(-c2nc(C)cs2)nc(=O)c(Cc2ccc(-c3ccncc3C)c(F)c2)c1O [Example 75, 1-(2,6-diethylphenyl)-5-{[3-fluoro-4-(3-methylpyridin-4-yl)phenyl]methyl}-6-hydroxy-2-(4-methyl-1,3-thiazol-2-yl)-1,4-dihydropyrimidin-4-one]
0.01 to 10 | CCc1cccc(CC)c1-n1c(-c2ccn(CC)n2)nc(=O)c(Cc2ccc(-c3ccncc3C)c(F)c2)c1O [Example 76, 1-(2,6-diethylphenyl)-2-(1-ethyl-1H-pyrazol-3-yl)-5-{[3-fluoro-4-(3-methylpyridin-4-yl)phenyl]methyl}-6-hydroxy-1,4-dihydropyrimidin-4-one]
0.01 to 10 | CCc1cccc(CC)c1-n1c(-c2ccn(CC)n2)nc(=O)c(Cc2ccc(-c3ccnc(F)c3C)c(F)c2)c1O [Example 77, 1-(2,6-diethylphenyl)-2-(1-ethyl-1H-pyrazol-3-yl)-5-{[3-fluoro-4-(2-fluoro-3-methylpyridin-4-yl)phenyl]methyl}-6-hydroxy-1,4-dihydropyrimidin-4-one]
0.01 to 10 | CCc1cccc(CC)c1-n1c(-c2csc(C)n2)nc(=O)c(Cc2ccc(-c3ccnc(F)c3C)c(F)c2)c1O [Example 78, 1-(2,6-diethylphenyl)-5-{[3-fluoro-4-(2-fluoro-3-methylpyridin-4-yl)phenyl]methyl}-6-hydroxy-2-(2-methyl-1,3-thiazol-4-yl)-1,4-dihydropyrimidin-4-one]

Same assay, conditions: HEK293 cells stably expressing human APJ receptor; inhibition of forskolin-mediated cAMP production; read-out: Human APJ cAMP EC50 potency range

Compound | EC50 [nM]
CCc1cccc(CC)c1-n1c(-c2ccn(C3CC3)n2)nc(=O)c(Cc2ccc(-c3ccnc(F)c3C)c(F)c2)c1O [Example 61, 2-(1-cyclopropyl-1H-pyrazol-3-yl)-1-(2,6-diethylphenyl)-5-(3-fluoro-4-(2-fluoro-3-methylpyridin-4-yl)benzyl)-6-hydroxypyrimidin-4(1H)-one] | 0.01 to 10
